Legend:
Conditions in all cases: treatment: drug + dasatinib (fixed dose, not stated); 5 days
SN12C [1] = assay: GI50 of drug in presence of dasatinib; higher = less potent
Description: (§1)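 Primary HTS combination arm: 8 RCC cell lines treated with 8 doses (up to 10 uM) of each library drug plus a fixed dose of dasatinib (dose not stated) for 5 days; viability read by CellTiter-Glo and normalised to DMSO. GI50 was fitted with XLfit, AUC is the area under the dose-response curve, and minimum viability is the lowest fraction of DMSO viability across doses.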

A498 [2] = assay: as above
Description: as §1

CAKI-1 [3] = assay: as above
Description: as §1

UO-31 [4] = assay: as above
Description: as §1

769-P [5] = assay: as above
Description: as §1

TK-10 [6] = assay: as above
Description: as §1

SN12C [7] = assay: AUC of dose-response viability curve, drug + dasatinib, normalised to DMSO (arbitrary (AUC of normalised viability)); higher = less growth inhibition
Description: as §1

A498 [8] = assay: as above
Description: as §1

CAKI-1 [9] = assay: as above
Description: as §1

UO-31 [10] = assay: as above
Description: as §1

ACHN [11] = assay: as above
Description: as §1

769-P [12] = assay: as above
Description: as §1

TK-10 [13] = assay: as above
Description: as §1

786-O [14] = assay: as above
Description: as §1

SN12C [15] = assay: minimum viability across doses, drug + dasatinib, relative to DMSO (fraction); higher = less growth inhibition
Description: as §1

A498 [16] = assay: as above
Description: as §1

CAKI-1 [17] = assay: as above
Description: as §1

UO-31 [18] = assay: as above
Description: as §1

ACHN [19] = assay: as above
Description: as §1

769-P [20] = assay: as above
Description: as §1

TK-10 [21] = assay: as above
Description: as §1

786-O [22] = assay: as above
Description: as §1

786-O [23] = assay: GI50 of drug in presence of dasatinib; higher = less potent
Description: as §1

SMILES	GI50 of drug (SN12C [1]) [µM]	GI50 of drug (A498 [2]) [µM]	GI50 of drug (CAKI-1 [3]) [µM]	GI50 of drug (UO-31 [4]) [µM]	GI50 of drug (769-P [5]) [µM]	GI50 of drug (TK-10 [6]) [µM]	AUC of dose-response viability curve (SN12C [7])	AUC of dose-response viability curve (A498 [8])	AUC of dose-response viability curve (CAKI-1 [9])	AUC of dose-response viability curve (UO-31 [10])	AUC of dose-response viability curve (ACHN [11])	AUC of dose-response viability curve (769-P [12])	AUC of dose-response viability curve (TK-10 [13])	AUC of dose-response viability curve (786-O [14])	minimum viability across doses (SN12C [15])	minimum viability across doses (A498 [16])	minimum viability across doses (CAKI-1 [17])	minimum viability across doses (UO-31 [18])	minimum viability across doses (ACHN [19])	minimum viability across doses (769-P [20])	minimum viability across doses (TK-10 [21])	minimum viability across doses (786-O [22])	GI50 of drug (786-O [23]) [µM]
CC1CCN(C(=O)CC#N)C[C@@H]1N(C)c1ncnc2[nH]ccc12.O=C(O)CC(O)(CC(=O)O)C(=O)O (stereo in doubt) + Cc1nc(Nc2ncc(C(=O)Nc3c(C)cccc3Cl)s2)cc(N2CCN(CCO)CC2)n1 [dasatinib]	> 10	> 10	> 10	> 10	> 10	> 10	2.48	3.5	2.56	3.69	1.7	2.6	2.51	1.92	0.69	0.887	0.567	0.934	0.304	0.681	0.647	0.439	–
O=C1NC(=O)/C(=C/c2ccc3nccnc3c2)S1 + Cc1nc(Nc2ncc(C(=O)Nc3c(C)cccc3Cl)s2)cc(N2CCN(CCO)CC2)n1 [dasatinib]	> 10	> 10	4.25	> 10	8.39	> 10	2.56	3.09	2.23	3.46	2.01	2.33	2.57	2.15	0.704	0.781	0.343	0.879	0.479	0.491	0.64	0.464	1.55
Cc1ccccc1-n1c(Cn2cnc3c(N)ncnc32)nc2cccc(C)c2c1=O + Cc1nc(Nc2ncc(C(=O)Nc3c(C)cccc3Cl)s2)cc(N2CCN(CCO)CC2)n1 [dasatinib]	> 10	> 10	> 10	> 10	> 10	> 10	2.53	3.27	2.28	3.34	1.87	2.4	2.49	1.98	0.695	0.859	0.516	0.738	0.443	0.612	0.651	0.444	5.69
OCCn1cc(-c2cnc3nnn(Cc4ccc5ncccc5c4)c3n2)cn1 + Cc1nc(Nc2ncc(C(=O)Nc3c(C)cccc3Cl)s2)cc(N2CCN(CCO)CC2)n1 [dasatinib]	> 10	> 10	–	> 10	> 10	> 10	2.32	3.25	2.02	3.41	1.77	2.44	2.57	2.79	0.614	0.872	0.408	0.926	0.448	0.651	0.688	0.702	> 10
CCn1c(N)c(C(=O)NC)c(=O)c2ccc(C#C[C@@](C)(O)COC)nc21 + Cc1nc(Nc2ncc(C(=O)Nc3c(C)cccc3Cl)s2)cc(N2CCN(CCO)CC2)n1 [dasatinib]	> 10	> 10	> 10	> 10	> 10	> 10	2.52	3.2	2.43	4.43	1.87	2.74	2.72	2.59	0.684	0.773	0.588	0.884	0.432	0.671	0.721	0.589	> 10
O=c1cc(N2CCOCC2)oc2c(-c3ccccc3)cccc12 + Cc1nc(Nc2ncc(C(=O)Nc3c(C)cccc3Cl)s2)cc(N2CCN(CCO)CC2)n1 [dasatinib]	> 10	> 10	3.01	9.2	5.32	> 10	2.34	2.88	1.98	3.24	1.77	2.2	2.49	2.28	0.512	0.656	0.393	0.457	0.362	0.412	0.663	0.394	4.54
NC(=O)c1ccc(-c2nc(-c3ccc4c(c3)OCO4)c(-c3ccccn3)[nH]2)cc1 + Cc1nc(Nc2ncc(C(=O)Nc3c(C)cccc3Cl)s2)cc(N2CCN(CCO)CC2)n1 [dasatinib]	> 10	> 10	3	> 10	–	> 10	2.41	3.17	2.18	3.57	2.08	1.77	2.75	2.24	0.446	0.592	0.456	0.844	0.317	0.234	0.636	0.485	2.37
C[C@@H]1CCN(C(=O)CC#N)C[C@@H]1N(C)c1ncnc2[nH]ccc12 + Cc1nc(Nc2ncc(C(=O)Nc3c(C)cccc3Cl)s2)cc(N2CCN(CCO)CC2)n1 [dasatinib]	> 10	> 10	> 10	> 10	> 10	> 10	2.51	3.91	2.53	4.82	1.62	2.6	2.59	3.03	0.695	1	0.685	1.23	0.363	0.664	0.7	0.743	> 10
CCS(=O)(=O)N1CC(CC#N)(n2cc(-c3ncnc4[nH]ccc34)cn2)C1 + Cc1nc(Nc2ncc(C(=O)Nc3c(C)cccc3Cl)s2)cc(N2CCN(CCO)CC2)n1 [dasatinib]	> 10	> 10	8.06	> 10	> 10	> 10	2.51	4.02	2.4	4.24	1.78	2.46	2.61	2.58	0.692	1.07	0.47	0.917	0.44	0.625	0.689	0.399	6.65
Cn1cnc(N)c2ncnc1-2 [3-Methyladenine] + Cc1nc(Nc2ncc(C(=O)Nc3c(C)cccc3Cl)s2)cc(N2CCN(CCO)CC2)n1 [dasatinib]	> 10	> 10	> 10	> 10	> 10	> 10	2.57	3.49	2.47	4.32	1.56	2.57	2.57	2.32	0.703	0.947	0.673	1.03	0.329	0.649	0.691	0.542	> 10
Cc1ccc(-n2nc(C(C)(C)C)cc2NC(=O)Nc2ccc(OCCN3CCOCC3)c3ccccc23)cc1 [BIRB 796 (Doramapimod)] + Cc1nc(Nc2ncc(C(=O)Nc3c(C)cccc3Cl)s2)cc(N2CCN(CCO)CC2)n1 [dasatinib]	> 10	> 10	> 10	> 10	> 10	> 10	2.4	3.07	2.29	3.79	1.78	2.29	2.49	2.63	0.659	0.755	0.567	0.946	0.439	0.537	0.66	0.639	> 10
CCN(CCO)CCCOc1ccc2c(Nc3cc(CC(=O)Nc4cccc(F)c4)n[nH]3)ncnc2c1 [Barasertib (AZD1152-HQPA)] + Cc1nc(Nc2ncc(C(=O)Nc3c(C)cccc3Cl)s2)cc(N2CCN(CCO)CC2)n1 [dasatinib]	> 10	> 10	0.678	> 10	1.23	> 10	2.41	3.31	2.04	3.22	1.83	2.09	2.65	1.61	0.628	0.841	0.402	0.842	0.417	0.346	0.685	0.157	0.113
CC[C@H](Nc1ncnc2[nH]cnc12)c1nc2cccc(F)c2c(=O)n1-c1ccccc1 [CAL-101 (GS-1101)] + Cc1nc(Nc2ncc(C(=O)Nc3c(C)cccc3Cl)s2)cc(N2CCN(CCO)CC2)n1 [dasatinib]	> 10	> 10	–	6.29	7.53	8.33	2.3	3.29	1.84	3.55	1.86	2.32	2.44	2.12	0.546	0.843	0.0955	0.362	0.341	0.477	0.493	0.298	1.48
O=C1Nc2ccccc2/C1=C1/Nc2ccccc2C1=O [Indirubin] + Cc1nc(Nc2ncc(C(=O)Nc3c(C)cccc3Cl)s2)cc(N2CCN(CCO)CC2)n1 [dasatinib]	> 10	> 10	> 10	> 10	> 10	> 10	2.36	3.41	2.02	3.15	1.65	2.38	2.48	1.76	0.624	0.941	0.497	0.799	0.435	0.632	0.593	0.394	–
COc1ccc2c(c1OC)N=C(NC(=O)c1cccnc1)N1CCN=C21 [PIK-90] + Cc1nc(Nc2ncc(C(=O)Nc3c(C)cccc3Cl)s2)cc(N2CCN(CCO)CC2)n1 [dasatinib]	2.26	> 10	0.424	3.82	1.48	> 10	2.21	3.11	1.82	2.69	1.7	2.03	2.3	1.76	0.52	0.762	0.136	0.434	0.235	0.268	0.552	0.388	–

From the supplement of paper PMC8149375
